{"source": "patent US20230399358A1", "about": "“IMMUNOGLOBULIN PURIFICATION PEPTIDES AND THEIR USE” (North Carolina State University, priority 2019, published 2023)", "key": {"human polyclonal IgG": {"system": "human polyclonal IgG", "experiment": "Static binding isotherm on WorkBeads adsorbents, Langmuir fit", "settings": "WorkBeads adsorbent, PBS pH 7.4, Langmuir fit", "from_the_text": "Measurements of static and dynamic binding capacity: […] NO:2)-Workbeads and […] NO:30)-Workbeads were characterized in terms of static and dynamic binding capacity respectively by batch and breakthrough binding studies. The peptides […] NO:3) and […] NO:4) were not selected for further studies due to their low selectivity and low yield, respectively. […] The resin was pelleted by centrifugation and the supernatant removed. […] The resulting fractions were combined and analyzed by BCA assay to quantify the unbound IgG and, accordingly, the amount of IgG adsorbed. The resulting data were fit to a Langmuir isotherm to determine the values of Qmax and KD(Solid). […] The amount of unbound IgG was determined by analyzing the supernatants via Micro BCA Protein Assay Kit. The amount of bound IgG per volume of resin (Q) was determined by mass balance and plotted against the corresponding equilibrium concentration of unbound IgG in solution (CIgG). The data were fit to a Langmuir isotherm model, thus providing a value of maximum binding capacity (Qmax) and dissociation constant (KD)."}, "[1]": {"system": "human polyclonal IgG in CHO cell culture fluid", "experiment": "Chromatographic purification of IgG from CHO cell culture fluid on WorkBeads resin, SDS-PAGE densitometry", "settings": "Elution 1 (pH 4), 5 min residence time, FIG. 7B", "method": "(§1) Purification of IgG from CHO Cell culture fluids using MWRGWQC (SEQ ID NO:31)- and WQRHGIC (SEQ ID NO:30)—Workbeads: A volume of 0.1 mL of resin was packed in a PEEK microbore column, installed on a Waters 2695 unit, and equilibrated with PBS, pH 7.4. All chromatographic buffers were filtered through a compatible 0.2 μm filter prior to use. A volume of 100 μL of solution of human polyclonal IgG at 1 mg/mL in a CHO cell culture fluid at 0.205 mg/mL CHO HCPs was injected in the column at 0.02 mL/min (RT: 5 minutes). Following injection, the resin was washed with PBS at 0.2 mL/min and, subsequently, with 100 mM NaCl in PBS at 0.2 mL/min. Elution was then conducted with […] pH 4. An acidic cleaning step was conducted in 0.1 M glycine pH 2.5 to remove any proteins still bound. The absorbance of the effluent was monitored by UV/Vis spectrophotometry at 280 nm. Fractions were collected and adjusted to neutral pH. Total protein concentration was measured by BCA assay. All collected fractions were also analyzed via SDS PAGE under reducing conditions. The gel was stained by silver staining, and the overall IgG purity in the eluted fractions was determined by densitometric analysis using ImageJ software. Finally, the feed and eluted fractions were analyzed using a CHO-specific ELISA kit to determine the log removal value (LRV) of HCPs.\nThe high purity of the recovered IgG using WQRHGI (SEQ ID NO:1), as calculated by densitometric analysis (100%) was confirmed by the HCP LRV value of 2.7, thus indicating WQRHGI (SEQ ID NO:1) has purification abilities similar to Protein A. This is a remarkable result. […] The collected chromatographic fractions were analyzed by SDS-PAGE (FIG. 7B, silver stained to highlight diluted CHO HCPs). The % values of IgG in the fractions (expressed as a ratio of IgG concentration over total protein (e.g., IgG+CHO HCPs)) were calculated by densitometric analysis of the lanes in the SDS gel and were as follows: Control (C), 0.00%; Load (L) 59.77%; Flowthrough (FT), 0.00%; Elution 1 (El1), 100.00%; Elution 2 (El2), 0.00%; IgG 93.30%. […]"}, "CHO HCPs": {"system": "CHO HCPs", "experiment": "CHO HCP-specific ELISA, log removal value of HCPs", "design": "species or system Chinese hamster", "method": "as §1, with “HCPs. […]” for “HCPs.”"}}}
{"substance": "WQRHGI", "values": [{"measurement": "Qmax", "setting": "human polyclonal IgG", "result": 52.6, "unit": "mg IgG/mL resin"}, {"measurement": "Kd", "setting": "human polyclonal IgG; read-out: KD(Solid)", "result": 3.2, "unit": "µM"}, {"measurement": "% IgG over total protein", "setting": "[1]", "result": 100, "unit": "%"}, {"measurement": "HCP clearance", "setting": "CHO HCPs", "result": "greater than 99%"}, {"measurement": "HCP LRV", "setting": "CHO HCPs; IgG 1 mg/mL in CHO fluid with 0.205 mg/mL HCPs, elution pH 4", "result": 2.7}]}
